Values of other authors, collected in PMC10894724 (Chemistry (Weinheim an der Bergstrasse, Germany), 2023).

Test system: P. falciparum Dd2 strain

CCCCCC(=O)N[C@H](C(=O)N[C@@H](CCS(C)(=O)=O)C(=O)N[C@@H](CC(C)C)C(=O)[C@@]1(C)CO1)C(C)C [carmaphycin B]
selectivity for asexual blood stage P. falciparum cells over human HepG2 cells: 3 fold
